These results are taken from article doi:10.1101/139675v1, “Purification of the mammalian NgBR/hCIT cis-prenyltransferase complex: Identification of a conserved carboxyterminal RxG motif crucial for enzymatic activity” (biorxiv, 2017).

The target of this test is T1, NgBR/hCIT complex (hcisPT) (Homo sapiens, UniProt Q86SQ9+Q96E22).
T1 construct: gene DHDDS; full-length; N-terminal Strep-tag on hCIT, internal 6-His tag after Gly31 of NgBR; bicistronic vector in Expi293F
T1 sequence (Q86SQ9 1-333): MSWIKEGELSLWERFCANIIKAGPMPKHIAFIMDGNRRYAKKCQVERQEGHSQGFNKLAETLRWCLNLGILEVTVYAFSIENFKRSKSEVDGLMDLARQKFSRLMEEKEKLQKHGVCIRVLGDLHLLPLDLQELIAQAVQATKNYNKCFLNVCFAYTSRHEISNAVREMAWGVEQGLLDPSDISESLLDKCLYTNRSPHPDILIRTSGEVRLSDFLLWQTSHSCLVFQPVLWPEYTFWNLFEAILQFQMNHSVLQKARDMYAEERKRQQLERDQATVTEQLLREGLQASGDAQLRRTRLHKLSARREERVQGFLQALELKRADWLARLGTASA
T1 sequence (Q96E22 1-293): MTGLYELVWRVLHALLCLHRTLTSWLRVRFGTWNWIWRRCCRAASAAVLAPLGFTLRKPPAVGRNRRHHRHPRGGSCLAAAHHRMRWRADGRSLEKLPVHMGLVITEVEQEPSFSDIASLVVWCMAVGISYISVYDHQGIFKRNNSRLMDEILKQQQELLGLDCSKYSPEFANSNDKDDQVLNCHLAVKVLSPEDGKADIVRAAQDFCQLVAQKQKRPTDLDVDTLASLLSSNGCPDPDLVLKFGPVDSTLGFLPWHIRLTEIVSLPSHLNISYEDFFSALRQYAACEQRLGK
In words: […]-IPP incorporation, Michaelis-Menten fit. To be noted: 50 mM Tris-HCl pH 8, 1 mM MgCl2, 1% phosphatidylinositol, 37 C. The format is biochemical.

With `CC(C)=CCC/C(C)=C/CC/C(C)=C/COP(=O)(O)OP(=O)(O)O` [FPP], for the setting “100 uM IPP, 0.1-50 uM FPP”, the Km entry is on record as “steady state kinetic parameters were measured for complexes containing the WT subunits, hCIT/NgBR”.
With `C=C(C)CCOP(=O)(O)OP(=O)(O)O` [IPP], the Km entry (50 uM FPP, 0.1-400 uM IPP, labelled compound) is reported as “steady state kinetic parameters were measured for complexes containing the WT subunits, hCIT/NgBR”.
